Laboratory results from patent US20090029366A1 (priority 2007, published 2009).

Biological target: T1, human HCN4 channel (Homo sapiens, UniProt Q9Y3Q4)
T1 construct: expressed in transfected cells; host or cells: CHO-K1
T1 sequence (Q9Y3Q4 1-1203): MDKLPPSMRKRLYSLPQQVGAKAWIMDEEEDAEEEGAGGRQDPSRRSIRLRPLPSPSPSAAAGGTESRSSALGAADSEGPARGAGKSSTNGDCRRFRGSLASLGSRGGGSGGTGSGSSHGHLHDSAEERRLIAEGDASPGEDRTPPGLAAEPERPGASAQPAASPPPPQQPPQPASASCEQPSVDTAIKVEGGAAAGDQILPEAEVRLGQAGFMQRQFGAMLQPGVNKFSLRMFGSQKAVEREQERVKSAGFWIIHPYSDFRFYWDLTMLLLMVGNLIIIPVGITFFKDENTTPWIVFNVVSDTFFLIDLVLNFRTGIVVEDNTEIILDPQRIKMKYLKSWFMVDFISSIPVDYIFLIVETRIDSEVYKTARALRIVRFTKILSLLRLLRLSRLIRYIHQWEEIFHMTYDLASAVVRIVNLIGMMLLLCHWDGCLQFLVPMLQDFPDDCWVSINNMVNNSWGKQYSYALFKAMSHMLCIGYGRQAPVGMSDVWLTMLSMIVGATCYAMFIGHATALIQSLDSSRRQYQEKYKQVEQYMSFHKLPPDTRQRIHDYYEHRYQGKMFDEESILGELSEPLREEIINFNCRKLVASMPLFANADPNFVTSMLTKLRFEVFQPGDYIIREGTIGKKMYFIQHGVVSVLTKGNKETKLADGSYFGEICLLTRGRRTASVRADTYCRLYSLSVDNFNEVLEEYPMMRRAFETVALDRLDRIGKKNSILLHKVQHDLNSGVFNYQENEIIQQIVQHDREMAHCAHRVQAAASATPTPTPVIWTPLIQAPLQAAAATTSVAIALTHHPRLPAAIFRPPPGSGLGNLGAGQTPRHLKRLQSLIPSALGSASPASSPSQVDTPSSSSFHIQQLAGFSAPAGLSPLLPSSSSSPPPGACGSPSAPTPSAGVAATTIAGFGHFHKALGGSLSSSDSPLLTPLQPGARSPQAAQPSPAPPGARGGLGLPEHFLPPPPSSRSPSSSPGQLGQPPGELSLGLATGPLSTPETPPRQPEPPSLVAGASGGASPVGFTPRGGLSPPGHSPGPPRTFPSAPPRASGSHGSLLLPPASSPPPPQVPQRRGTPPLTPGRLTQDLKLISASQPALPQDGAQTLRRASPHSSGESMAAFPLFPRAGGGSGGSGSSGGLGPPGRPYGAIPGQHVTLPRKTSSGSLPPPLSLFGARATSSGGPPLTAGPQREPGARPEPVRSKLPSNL
Assay: MPSD FLIPR 384 hyperpolarization assay, HCN4 (CHO-K1 cells)
Assay type: cell-based
Settings: 50 μM ZD7288
Experimental: CHO-K1 cells stably expressing a human HCN4 channel were plated as described in Example 3 above. Using a FLIPR®^96 assay, control cells were incubated in 30 μl/well HBSS (Gibco catalog 14025-092 containing NaCl, 137.93; KCl, 5.33; KH2PO4, 0.44; NaHCO3, 4.17; Na2HPO4, 0.34; CaCl2, 1.26; MgCl2, 0.49; MgSO4, 0.41; D-Glucose 5.56). The HBSS was supplemented with MPSD (1 vial/0.5 L). The saline for test cells additionally included 30 μM of the channel inhibitor ZD7288 dissolved in <1.0% DMSO. After 15-30 minutes incubation, background fluorescence was recorded on FLIPR and the membrane hyperpolarization induced by the addition of 200 μl sodium/potassium diluent solution (140 Choline-Cl, 1.0 mM CaCl2, 1.0 mM CaCl2, 10 mM HEPES, 5.5 mM D-glucose, pH 7.3 with TRIS-OH), supplemented with MPSD (1 vial/0.5 L) was recorded on FLIPR.
The FLIPR®^384 well plate was prepared similarly to the FLIPR®^96 well plate except that the amounts of HBSS (optionally, HBSS was supplemented with about 25 to 50 mM of KCl to further enhance assay window) and the sodium/potassium diluent solution were adjusted to keep the dilution ratio of these solutions between about 1:10-1:30, respectively. Additionally, 50 μM ZD7288 was added to the saline containing test cells. […] In addition, less than about 0.02% false positives or false negatives were observed (covariance 11.03 and 12.05, data not shown).

CCN(c1ccccc1)c1cc(=NC)n(C)c(C)n1.Cl [ZD7288]
blockade of hyperpolarization of HCN4 channels: effectively blocked hyperpolarization
